Results: the supplement of paper PMC10011410
± gives the standard deviation of the averaged measurements.

How the values were obtained:
U-2 OS [1] = assay: intracellular GSH:GSSG ratio (calculated); higher = more reduced glutathione pool; conditions: 24 h
Description: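 Intracellular glutathione in U-2 OS cells after 24 h compound treatment at 5, 10 and 20 uM (some at 40 and 80 uM). Total glutathione and GSSG were measured with the GSH/GSSG-Glo kit, and the GSH:GSSG ratio was calculated. Mean of five technical replicate plates.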

U-2 OS [2] = assay: cell painting activity score (Mahalanobis distance from DMSO wells); higher = stronger morphological phenotype; conditions: 24 h
Method in brief: (§1)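 U-2 OS cells were seeded at about 1,500 per well in 384-well plates and treated by pin tool for 24 h at 37 °C, usually at six 2-fold concentrations from 20 μM to 625 nM. After staining with MitoTracker, concanavalin A, phalloidin, wheat germ agglutinin, Hoechst and SYTO 14, plates were imaged on an Opera Phenix and features were extracted with CellProfiler and normalized to DMSO cells on the same plate. The activity score is the Mahalanobis distance from DMSO wells, and cell count is given relative to DMSO wells. Each value is the mean of four replicate plates.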

U-2 OS [3] = assay: AUC of culture confluence over time (live-cell imaging) (AUC (confluence % x time)); higher = more confluent culture (less growth inhibition)
Method in brief: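 The value is the area under the curve of confluence plotted against time. U-2 OS cells in F-12K medium with 10% FBS were seeded at 750 per well in 384-well plates, then treated by pin tool 24 h later, most compounds at 20, 10 and 5 μM with 0.2% DMSO. At 37 °C, an Incucyte S3 with a 10x objective imaged the wells every 4 h for up to 60 h.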

U-2 OS [4] = assay: total intracellular glutathione (GSH + GSSG) relative to DMSO (% of control); higher = more glutathione; conditions: 24 h
Description: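 Total intracellular glutathione (GSH + GSSG) in U-2 OS cells by GSH/GSSG-Glo after 24 h compound treatment at 5, 10 and 20 uM (some at 40 and 80 uM), as percent of DMSO control. Five technical replicate plates, averaged.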

U-2 OS [5] = assay: relative cell count vs DMSO (cell painting) (fraction of DMSO control); higher = more cells remaining (less cytotoxic); conditions: 24 h
Method in brief: as §1

U-2 OS [6] = assay: cell viability (CellTiter-Glo) relative to DMSO (% of control); higher = more viable; conditions: 24 h
Description: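 Cell viability of U-2 OS cells by CellTiter-Glo after 24 h compound treatment at 5, 10 and 20 uM (some at 40 and 80 uM), measured in parallel with the glutathione assay, as percent of DMSO control. Five technical replicate plates, averaged.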

| SMILES | intracellular GSH:GSSG ratio (U-2 OS [1]; 5 µM) | intracellular GSH:GSSG ratio (U-2 OS [1]; 10 µM) | intracellular GSH:GSSG ratio (U-2 OS [1]; 20 µM) | cell painting activity score (U-2 OS [2]; 0.625 µM) | cell painting activity score (U-2 OS [2]; 1.25 µM) | cell painting activity score (U-2 OS [2]; 2.5 µM) | cell painting activity score (U-2 OS [2]; 5 µM) | cell painting activity score (U-2 OS [2]; 10 µM) | cell painting activity score (U-2 OS [2]; 20 µM) | AUC of culture confluence over time (U-2 OS [3]; 5 µM) | AUC of culture confluence over time (U-2 OS [3]; 10 µM) | AUC of culture confluence over time (U-2 OS [3]; 20 µM) | total intracellular glutathione (U-2 OS [4]; 5 µM) | total intracellular glutathione (U-2 OS [4]; 10 µM) | total intracellular glutathione (U-2 OS [4]; 20 µM) | relative cell count (U-2 OS [5]; 0.625 µM) | relative cell count (U-2 OS [5]; 1.25 µM) | relative cell count (U-2 OS [5]; 2.5 µM) | relative cell count (U-2 OS [5]; 5 µM) | relative cell count (U-2 OS [5]; 10 µM) | relative cell count (U-2 OS [5]; 20 µM) | cell viability (U-2 OS [6]; 5 µM) | cell viability (U-2 OS [6]; 10 µM) | cell viability (U-2 OS [6]; 20 µM) | intracellular GSH:GSSG ratio (U-2 OS [1]; 40 µM) | intracellular GSH:GSSG ratio (U-2 OS [1]; 80 µM) | cell painting activity score (U-2 OS [2]; 40 µM) | cell painting activity score (U-2 OS [2]; 80 µM) | AUC of culture confluence over time (U-2 OS [3]; 40 µM) | AUC of culture confluence over time (U-2 OS [3]; 80 µM) | total intracellular glutathione (U-2 OS [4]; 40 µM) | total intracellular glutathione (U-2 OS [4]; 80 µM) | relative cell count (U-2 OS [5]; 40 µM) | relative cell count (U-2 OS [5]; 80 µM) | cell viability (U-2 OS [6]; 40 µM) | cell viability (U-2 OS [6]; 80 µM) |
| --- | --- | --- | --- | --- | --- | --- | --- | --- | --- | --- | --- | --- | --- | --- | --- | --- | --- | --- | --- | --- | --- | --- | --- | --- | --- | --- | --- | --- | --- | --- | --- | --- | --- | --- | --- | --- |
| CNC(=O)Nc1ccc2c(c1)[C@@]1(CC2)OC(=O)N(CC(=O)N(Cc2ccc(F)cc2)[C@@H](C)C(F)(F)F)C1=O | 20.4 | 29.9 | 16.2 | 4.88 | 6.13 | 4.26 | 5.02 | 5.83 | 4.92 | 45.6 | 49.6 | 44.7 | 100 ± 8.6 | 122 ± 7.3 | 90.4 ± 4 | 0.989 | 1.01 | 0.976 | 1.01 | 0.982 | 0.969 | 105 ± 7.5 | 98.6 ± 12 | 103 ± 9.4 | – | – | – | – | – | – | – | – | – | – | – | – |
| O=S1(=O)CCc2ccccc21 | 26 | 25.7 | 22.4 | 4.91 | 3.74 | 4.94 | 4.01 | 4.61 | 6.81 | 51 | 51.8 | 54.2 | 104 ± 1.9 | 109 ± 7.8 | 106 ± 7.5 | 1.03 | 0.988 | 1.02 | 1.05 | 1.02 | 1.02 | 101 ± 3.4 | 101 ± 5.8 | 102 ± 2.9 | – | – | – | – | – | – | – | – | – | – | – | – |
| CCCCCOc1ccc(/C=C\c2cccc(O)c2C(=O)O)cc1 | 21.5 | 17.6 | 21.8 | 5.46 | 4.75 | 3.23 | 3.6 | 4.31 | 4.17 | 38.6 | 40.9 | 46.8 | 75.1 ± 6.4 | 69.9 ± 7 | 81.1 ± 8.2 | 0.986 | 0.944 | 0.908 | 0.973 | 1.05 | 0.952 | 106 ± 3.3 | 97.9 ± 5.9 | 106 ± 6.7 | 14.2 | 35.3 | 6.92 | 17.3 | 34.2 | 44.5 | 78.4 ± 6.4 | 76.9 ± 9.8 | 0.501 | 0.24 | 104 ± 5.3 | 99 ± 5.7 |
| O=C(NNS(=O)(=O)c1ccccc1F)c1cc(F)cc(-c2ccccn2)c1 | 21.6 | 19.3 | 22.2 | 4.25 | 5.31 | 5.99 | 9.11 | 10.5 | 9.4 | 47.7 | 48.6 | 51.9 | 101 ± 5.7 | 103 ± 5.3 | 104 ± 5.1 | 1 | 0.967 | 0.966 | 0.955 | 0.925 | 0.939 | 97.4 ± 5.8 | 97.1 ± 5.3 | 97.2 ± 4.7 | – | – | – | – | – | – | – | – | – | – | – | – |
